From article PMC9234961 (Journal of Medicinal Chemistry, 2022)
Where two headings read alike, the source gives them in different places.

Columns and labels:
[1] = biological target: kinases (468) (Homo sapiens, UniProt P54753); conditions: EPHB3; 1000 nM
[2] = biological target: kinases (468) (Homo sapiens, UniProt P42336, C420R); conditions: PIK3CA(C420R); 1000 nM
[3] = biological target: kinases (468) (Homo sapiens, UniProt Q00535); conditions: CDK5; 1000 nM
[4] = biological target: kinases (468) (Homo sapiens, UniProt P54760); conditions: EPHB4; 1000 nM
[5] = biological target: kinases (468) (Homo sapiens, UniProt P42338); conditions: PIK3CB; 1000 nM
[6] = biological target: kinases (468) (Homo sapiens, UniProt P27361); conditions: ERK1 (MAPK3); 1000 nM
[7] = biological target: kinases (468) (Homo sapiens, UniProt Q9UIK4); conditions: DAPK2; 1000 nM
[8] = biological target: kinases (468) (Homo sapiens, UniProt Q5S007, G2019S); conditions: LRRK2(G2019S); 1000 nM
[9] = biological target: kinases (468) (Homo sapiens, UniProt Q96PN8); conditions: kinase TSSK3 (Entrez TSSK3); compound concentration 1000 nM
[10] = biological target: kinases (468) (Homo sapiens, UniProt Q9UQB9); conditions: AURKC; 1000 nM
[11] = biological target: kinases (468) (Homo sapiens, UniProt Q9UPZ9); conditions: ICK; 1000 nM
[12] = biological target: kinases (468) (Homo sapiens, UniProt P27037); conditions: ACVR2A; 1000 nM
[13] = biological target: kinases (468) (Homo sapiens, UniProt Q12866); conditions: MERTK; 1000 nM
[14] = biological target: kinases (468) (Homo sapiens, UniProt Q99640); conditions: PKMYT1; 1000 nM
[15] = biological target: kinases (468) (Homo sapiens, UniProt O75914); conditions: PAK3; 1000 nM
[16] = biological target: kinases (468) (Homo sapiens, UniProt P14616); conditions: INSRR; 1000 nM
[17] = biological target: kinases (468) (Homo sapiens, UniProt Q96NX5); conditions: CAMK1G; 1000 nM
[18] = biological target: kinases (468) (Homo sapiens, UniProt Q9Y243); conditions: AKT3; 1000 nM
[19] = biological target: kinases (468) (Homo sapiens, UniProt Q9UPE1); conditions: kinase SRPK3 (Entrez SRPK3); compound concentration 1000 nM
[20] = biological target: kinases (468) (Homo sapiens, UniProt Q9BVS4); conditions: kinase RIOK2 (Entrez RIOK2); compound concentration 1000 nM
[21] = biological target: kinases (468) (Homo sapiens, UniProt P42680); conditions: kinase TEC (Entrez TEC); compound concentration 1000 nM
[22] = biological target: kinases (468) (Homo sapiens, UniProt P49760); conditions: CLK2; 1000 nM
[23] = biological target: kinases (468) (Homo sapiens, UniProt Q7KZI7); conditions: MARK2; 1000 nM
[24] = biological target: kinases (468) (Homo sapiens, UniProt Q14289); conditions: PYK2 (PTK2B); 1000 nM
[25] = biological target: kinases (468) (Homo sapiens, UniProt O75582); conditions: compound concentration 1000 nM
[26] = biological target: kinases (468) (Homo sapiens, UniProt O14730); conditions: kinase RIOK3 (Entrez RIOK3); compound concentration 1000 nM
[27] = biological target: kinases (468) (Homo sapiens, UniProt P51817); conditions: PRKX; 1000 nM
[28] = biological target: kinases (468) (Homo sapiens, UniProt P29322); conditions: EPHA8; 1000 nM
[29] = biological target: kinases (468) (Homo sapiens, UniProt P31152); conditions: ERK4 (MAPK4); 1000 nM
[30] = biological target: kinases (468) (Homo sapiens, UniProt Q9H2X6); conditions: HIPK2; 1000 nM
[31] = biological target: kinases (468) (Homo sapiens, UniProt P53667); conditions: LIMK1; 1000 nM
[32] = biological target: kinases (468) (Homo sapiens, UniProt Q13555); conditions: CAMK2G; 1000 nM
[33] = biological target: kinases (468) (Homo sapiens, UniProt P10721); conditions: 1000 nM
[34] = biological target: kinases (468) (Homo sapiens, UniProt P48730); conditions: CSNK1D; 1000 nM
[35] = biological target: kinases (468) (Homo sapiens, UniProt Q13882); conditions: BRK (PTK6); 1000 nM

Sequence of kinases (468) (Homo sapiens, UniProt O75582) (O75582 whole entry): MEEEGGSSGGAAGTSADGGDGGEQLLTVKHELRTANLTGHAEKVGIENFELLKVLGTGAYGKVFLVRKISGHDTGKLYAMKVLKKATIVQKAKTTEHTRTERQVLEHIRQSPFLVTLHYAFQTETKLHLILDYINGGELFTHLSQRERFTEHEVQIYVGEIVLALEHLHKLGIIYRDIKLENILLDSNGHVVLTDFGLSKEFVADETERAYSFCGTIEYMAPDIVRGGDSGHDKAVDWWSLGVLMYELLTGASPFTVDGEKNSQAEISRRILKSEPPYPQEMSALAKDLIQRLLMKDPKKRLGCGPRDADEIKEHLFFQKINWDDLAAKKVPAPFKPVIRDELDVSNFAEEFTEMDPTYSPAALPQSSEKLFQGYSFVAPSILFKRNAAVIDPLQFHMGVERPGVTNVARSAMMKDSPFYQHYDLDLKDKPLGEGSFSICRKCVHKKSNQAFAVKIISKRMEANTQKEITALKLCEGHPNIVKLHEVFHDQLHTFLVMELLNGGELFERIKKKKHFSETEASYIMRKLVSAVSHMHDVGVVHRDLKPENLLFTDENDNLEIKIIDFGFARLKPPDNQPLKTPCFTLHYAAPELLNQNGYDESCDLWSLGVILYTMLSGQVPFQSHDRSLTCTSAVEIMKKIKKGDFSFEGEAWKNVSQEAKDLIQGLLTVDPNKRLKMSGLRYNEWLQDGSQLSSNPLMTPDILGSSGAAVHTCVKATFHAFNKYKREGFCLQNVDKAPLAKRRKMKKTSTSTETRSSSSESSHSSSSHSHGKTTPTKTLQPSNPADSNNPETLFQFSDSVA
Sequence of kinases (468) (Homo sapiens, UniProt P10721) (P10721 26-976): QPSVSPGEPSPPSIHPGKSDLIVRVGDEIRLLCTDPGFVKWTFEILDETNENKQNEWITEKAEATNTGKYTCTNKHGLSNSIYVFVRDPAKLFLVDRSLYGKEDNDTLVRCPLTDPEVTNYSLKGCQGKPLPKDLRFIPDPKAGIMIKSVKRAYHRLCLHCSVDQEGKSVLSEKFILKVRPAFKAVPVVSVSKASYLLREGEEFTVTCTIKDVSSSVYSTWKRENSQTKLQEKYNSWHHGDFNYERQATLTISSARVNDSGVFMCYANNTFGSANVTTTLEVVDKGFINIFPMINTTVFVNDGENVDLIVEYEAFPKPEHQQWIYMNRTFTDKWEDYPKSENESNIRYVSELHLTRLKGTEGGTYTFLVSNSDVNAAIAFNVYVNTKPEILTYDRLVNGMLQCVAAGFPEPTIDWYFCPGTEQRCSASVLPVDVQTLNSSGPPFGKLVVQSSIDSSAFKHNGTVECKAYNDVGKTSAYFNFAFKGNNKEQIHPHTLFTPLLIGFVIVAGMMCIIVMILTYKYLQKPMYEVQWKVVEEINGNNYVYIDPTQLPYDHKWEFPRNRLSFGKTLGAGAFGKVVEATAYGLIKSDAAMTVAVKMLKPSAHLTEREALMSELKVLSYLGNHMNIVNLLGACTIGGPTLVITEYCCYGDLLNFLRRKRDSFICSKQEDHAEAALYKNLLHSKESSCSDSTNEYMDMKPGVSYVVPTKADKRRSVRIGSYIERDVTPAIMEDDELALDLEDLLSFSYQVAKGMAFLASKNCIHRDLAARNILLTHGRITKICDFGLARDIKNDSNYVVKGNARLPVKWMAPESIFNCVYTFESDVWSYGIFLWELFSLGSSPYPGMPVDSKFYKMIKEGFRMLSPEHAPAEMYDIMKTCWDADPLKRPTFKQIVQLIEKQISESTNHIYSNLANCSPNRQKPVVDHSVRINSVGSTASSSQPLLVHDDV
Sequence of kinases (468) (Homo sapiens, UniProt P14616) (P14616 27-1297): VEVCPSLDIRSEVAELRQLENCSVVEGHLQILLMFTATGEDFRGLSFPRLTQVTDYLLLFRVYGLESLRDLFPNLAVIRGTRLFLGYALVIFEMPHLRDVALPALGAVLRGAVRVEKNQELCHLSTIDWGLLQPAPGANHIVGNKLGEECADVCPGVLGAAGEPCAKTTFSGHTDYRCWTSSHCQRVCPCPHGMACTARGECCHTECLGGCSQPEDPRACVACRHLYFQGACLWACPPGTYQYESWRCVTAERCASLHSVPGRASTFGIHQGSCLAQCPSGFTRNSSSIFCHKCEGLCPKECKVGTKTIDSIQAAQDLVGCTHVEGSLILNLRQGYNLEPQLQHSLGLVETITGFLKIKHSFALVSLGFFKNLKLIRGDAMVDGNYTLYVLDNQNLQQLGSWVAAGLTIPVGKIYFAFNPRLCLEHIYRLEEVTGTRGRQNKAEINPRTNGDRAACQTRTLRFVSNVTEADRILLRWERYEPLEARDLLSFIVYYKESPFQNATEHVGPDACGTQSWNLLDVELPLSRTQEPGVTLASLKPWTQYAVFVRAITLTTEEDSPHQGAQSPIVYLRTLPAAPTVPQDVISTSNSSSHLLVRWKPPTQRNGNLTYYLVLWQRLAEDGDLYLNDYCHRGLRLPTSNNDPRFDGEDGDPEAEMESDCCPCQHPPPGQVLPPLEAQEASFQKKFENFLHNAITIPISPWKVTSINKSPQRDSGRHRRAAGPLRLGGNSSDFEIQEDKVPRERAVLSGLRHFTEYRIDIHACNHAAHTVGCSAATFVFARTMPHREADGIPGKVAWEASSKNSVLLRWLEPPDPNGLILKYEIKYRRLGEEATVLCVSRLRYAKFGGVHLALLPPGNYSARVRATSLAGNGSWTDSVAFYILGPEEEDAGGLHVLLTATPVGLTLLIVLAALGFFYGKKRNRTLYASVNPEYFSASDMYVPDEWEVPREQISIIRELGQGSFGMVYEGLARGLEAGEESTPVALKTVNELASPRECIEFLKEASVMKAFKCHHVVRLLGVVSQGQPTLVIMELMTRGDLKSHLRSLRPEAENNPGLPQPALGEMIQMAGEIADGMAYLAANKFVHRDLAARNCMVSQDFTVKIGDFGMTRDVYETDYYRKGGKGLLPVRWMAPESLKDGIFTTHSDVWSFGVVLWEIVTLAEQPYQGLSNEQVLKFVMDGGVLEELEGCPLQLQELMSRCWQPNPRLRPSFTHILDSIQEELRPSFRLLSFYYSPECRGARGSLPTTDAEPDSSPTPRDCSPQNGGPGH
Sequence of kinases (468) (Homo sapiens, UniProt P54753) (P54753 34-998): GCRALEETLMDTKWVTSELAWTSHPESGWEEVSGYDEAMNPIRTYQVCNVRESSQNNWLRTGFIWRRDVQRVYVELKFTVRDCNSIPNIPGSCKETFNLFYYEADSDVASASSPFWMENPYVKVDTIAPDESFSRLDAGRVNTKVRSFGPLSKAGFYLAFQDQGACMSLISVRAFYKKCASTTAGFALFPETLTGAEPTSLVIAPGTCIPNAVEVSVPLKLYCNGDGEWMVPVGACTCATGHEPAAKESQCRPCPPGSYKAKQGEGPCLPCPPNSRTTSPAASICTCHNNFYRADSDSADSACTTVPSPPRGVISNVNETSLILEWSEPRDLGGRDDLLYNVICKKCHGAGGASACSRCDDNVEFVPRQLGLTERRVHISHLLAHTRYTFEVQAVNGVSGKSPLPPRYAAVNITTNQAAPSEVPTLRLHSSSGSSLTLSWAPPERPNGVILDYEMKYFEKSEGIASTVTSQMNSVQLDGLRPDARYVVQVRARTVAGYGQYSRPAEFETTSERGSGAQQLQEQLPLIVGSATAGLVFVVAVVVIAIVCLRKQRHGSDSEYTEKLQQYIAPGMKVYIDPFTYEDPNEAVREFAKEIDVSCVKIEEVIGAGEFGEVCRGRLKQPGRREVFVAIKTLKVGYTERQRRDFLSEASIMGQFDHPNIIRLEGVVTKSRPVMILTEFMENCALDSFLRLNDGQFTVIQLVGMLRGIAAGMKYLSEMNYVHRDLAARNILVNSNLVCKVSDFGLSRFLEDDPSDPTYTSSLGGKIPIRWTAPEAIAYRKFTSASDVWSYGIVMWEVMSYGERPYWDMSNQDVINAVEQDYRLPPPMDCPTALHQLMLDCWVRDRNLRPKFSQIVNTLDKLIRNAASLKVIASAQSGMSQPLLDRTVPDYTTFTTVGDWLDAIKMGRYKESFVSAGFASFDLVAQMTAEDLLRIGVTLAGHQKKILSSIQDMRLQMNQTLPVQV
Sequence of kinases (468) (Homo sapiens, UniProt Q14289) (Q14289 whole entry): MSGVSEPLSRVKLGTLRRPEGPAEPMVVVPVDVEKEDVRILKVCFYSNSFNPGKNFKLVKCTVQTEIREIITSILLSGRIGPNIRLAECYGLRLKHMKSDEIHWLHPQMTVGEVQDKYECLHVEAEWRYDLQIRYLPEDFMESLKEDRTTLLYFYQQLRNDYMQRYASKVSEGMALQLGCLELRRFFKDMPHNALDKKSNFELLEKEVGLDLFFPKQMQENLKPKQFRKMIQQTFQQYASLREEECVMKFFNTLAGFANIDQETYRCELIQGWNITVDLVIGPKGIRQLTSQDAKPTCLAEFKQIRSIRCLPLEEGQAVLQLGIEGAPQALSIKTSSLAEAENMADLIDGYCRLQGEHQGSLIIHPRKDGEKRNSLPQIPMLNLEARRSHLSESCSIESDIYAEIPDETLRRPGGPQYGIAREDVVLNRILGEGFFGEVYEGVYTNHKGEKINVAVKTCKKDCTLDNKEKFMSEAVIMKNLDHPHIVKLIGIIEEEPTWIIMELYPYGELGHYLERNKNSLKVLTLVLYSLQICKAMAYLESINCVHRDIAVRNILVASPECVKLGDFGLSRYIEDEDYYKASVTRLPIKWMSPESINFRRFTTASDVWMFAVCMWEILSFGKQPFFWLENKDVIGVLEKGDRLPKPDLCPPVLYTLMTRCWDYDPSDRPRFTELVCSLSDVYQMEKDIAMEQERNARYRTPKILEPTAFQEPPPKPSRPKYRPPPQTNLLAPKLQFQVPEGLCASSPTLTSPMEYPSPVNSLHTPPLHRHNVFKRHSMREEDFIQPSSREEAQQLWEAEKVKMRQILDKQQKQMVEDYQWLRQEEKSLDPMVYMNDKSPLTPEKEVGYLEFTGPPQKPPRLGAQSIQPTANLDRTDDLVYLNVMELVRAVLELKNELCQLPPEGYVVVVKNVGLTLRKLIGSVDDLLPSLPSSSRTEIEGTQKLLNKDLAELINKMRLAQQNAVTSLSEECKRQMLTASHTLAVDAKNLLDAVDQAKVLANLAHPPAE

C[C@H]1C[C@@H](O)CN(c2ncc(Cl)c(Nc3ccc4c(c3)c3c(c(=O)n4C)OCC(F)(F)[C@H](C4CC4)N3)n2)C1 [CCT373566_9A]
Percent Control [1]: 100% | Percent Control [2]: 93% | Percent Control [3]: 97% | Percent Control [4]: 100% | Percent Control [5]: 85% | Percent Control [6]: 98% | Percent Control [7]: 99% | Percent Control [8]: 12% | Percent Control [9]: 72% | Percent Control [10]: 100% | Percent Control [11]: 100% | Percent Control [12]: 82% | Percent Control [13]: 96% | Percent Control [14]: 100% | Percent Control [15]: 99% | Percent Control [16]: 100% | Percent Control [17]: 96% | Percent Control [18]: 93% | Percent Control [19]: 90% | Percent Control [20]: 100% | Percent Control [21]: 94% | Percent Control [22]: 68% | Percent Control [23]: 93% | Percent Control [24]: 98% | Percent Control ([25]; kinase RPS6KA5(Kin.Dom.1-N-terminal) (Entrez RPS6KA5)): 93% | Percent Control ([25]; kinase RPS6KA5(Kin.Dom.2-C-terminal) (Entrez RPS6KA5)): 96% | Percent Control [26]: 85% | Percent Control [27]: 100% | Percent Control [28]: 100% | Percent Control [29]: 100% | Percent Control [30]: 100% | Percent Control [31]: 57% | Percent Control [32]: 96% | Percent Control ([33]; KIT-autoinhibited): 90% | Percent Control ([33]; KIT): 100% | Percent Control [34]: 99% | Percent Control [35]: 100%
